We go through 78 compounds from patent US20050222173A1, “Triazolopyrimidines” (priority 2002, published 2005).

For orientation: chromatographic logP means a lipophilicity value derived from retention on a column. The low end stands for a more hydrophilic compound, the high end for a more lipophilic compound.

One data set can be described thus: logP determination by HPLC (EEC Directive 79/831 Annex V. A8).
Details: not given
`Nc1nnc(Br)[nH]1` [Example 185, 5-bromo-1,2,4-triazole-3-amine] came in with a chromatographic logP of 0.37.

Staying with this data set, now noted: HPLC, gradient method, acetonitrile/0.1% aqueous phosphoric acid.
For `Fc1cccc(Cl)c1-c1c(Cl)nc2nc(Cl)nn2c1N1CCOCC1` [Example 132], the log.P was 3.02. Same read-out and setting: to `CN1CCN(c2c(-c3c(F)cc(F)cc3F)c(Cl)nc3nc(Cl)nn23)CC1` [Example 84] belongs 2.71. In turn, `Clc1nc2nc(Cl)c(-c3ccccc3Cl)c(NC3CCCCC3)n2n1` [Example 42] returned a log.P of 4.32. Consider `Fc1ccc(-c2c(Cl)nc3nc(Cl)nn3c2NCC2CC2)c(F)c1` [Example 107], for which the log.P is given as 3.36. Same read-out and setting: with `Fc1cc(F)c(-c2c(Cl)nc3nc(Cl)nn3c2N2CCSCC2)c(F)c1` [Example 15] the figure was 3.68.

Compound `Fc1cc(F)c(-c2c(Cl)nc3nc(Cl)nn3c2NC2CC2)c(F)c1` [Example 14] gave a log.P of 3.1. The same measure, in the same setting: to `CC(C)Nc1c(-c2ccccc2Cl)c(Cl)nc2nc(Br)nn12` [Example 45] belongs 3.45. On the same count and under the same terms, with `CNc1c(-c2c(F)cc(F)cc2F)c(Cl)nc2nc(Cl)nn12` [Example 13] the figure was 2.67; with `OCCNc1c(-c2ccccc2Cl)c(Cl)nc2nc(Cl)nn12` [Example 21], 2.18; with `CCCN(CC1CC1)c1c(-c2ccc(F)cc2F)c(Cl)nc2nc(Cl)nn12` [Example 126], 4.48. Still for that read-out and setting: to `CCCNc1c(-c2c(F)cc(F)cc2F)c(Cl)nc2nc(Br)nn12` [Example 54] belongs 3.41. Turning to `Fc1cc(F)c(-c2c(Cl)nc3nc(Cl)nn3c2N2CCCCC2)c(F)c1` [Example 89], the log.P is listed as 4.06. The compound `CCN(Cc1ccco1)c1c(-c2ccc(F)cc2F)c(Cl)nc2nc(Cl)nn12` [Example 120] came in with a log.P of 3.98. Still for that read-out and setting: to `Fc1cc(F)c(-c2c(Cl)nc3nc(Cl)nn3c2N2CCCCC2C(F)(F)F)c(F)c1` (stereo not drawn) [Example 67] belongs 3.28; to `CON(C)c1c(-c2c(F)cc(F)cc2F)c(Cl)nc2nc(Cl)nn12` [Example 71], 3.36; to `C=C(C)CN(CC)c1c(-c2c(F)cc(F)cc2F)c(Cl)nc2nc(Br)nn12` [Example 76], 4.4. Same read-out and setting: to `C[C@H](Nc1c(-c2c(F)cc(F)cc2F)c(Cl)nc2nc(Br)nn12)C(F)(F)F` [Example 99] belongs 3.59. `CC(C)CNc1c(-c2ccc(F)cc2F)c(Cl)nc2nc(Cl)nn12` [Example 101] displayed a log.P of 3.61. Still for that read-out and setting: with `CCC(C)Nc1c(-c2ccc(F)cc2F)c(Cl)nc2nc(Cl)nn12` (stereo not drawn) [Example 102] the figure was 3.63; with `CCCCN(CC)c1c(-c2ccc(F)cc2F)c(Cl)nc2nc(Cl)nn12` [Example 124], 4.5; with `C=C(C)CN(C)c1c(-c2ccc(F)cc2F)c(Cl)nc2nc(Cl)nn12` [Example 116], 3.98.

`CC1CCN(c2c(-c3ccccc3Cl)c(Cl)nc3nc(Cl)nn23)CC1` [Example 82]: the log.P came to 4.62.

The compound `CCN(CC)c1c(-c2ccccc2Cl)c(Cl)nc2nc(Cl)nn12` [Example 31] gave a log.P of 3.99. Still for that read-out and setting: with `CC1CCN(c2c(-c3c(F)cc(F)cc3F)c(Cl)nc3nc(Cl)nn23)CC1` [Example 90] the figure was 4.45. The same measure, in the same setting: to `C#CCN(C)c1c(-c2ccc(F)cc2F)c(Cl)nc2nc(Cl)nn12` [Example 111] belongs 3.21. Compound `CC(NNc1c(-c2ccccc2Cl)c(Cl)nc2nc(Cl)nn12)C1CC1` (stereo not drawn) [Example 17] came in with a log.P of 3.55. In turn, `CCNc1c(-c2c(F)cc(F)cc2F)c(Cl)nc2nc(Br)nn12` [Example 51] displayed a log.P of 3.07. Same read-out and setting: with `CC(C)Nc1c(-c2c(F)cccc2Cl)c(Cl)nc2nc(Cl)nn12` [Example 94] the figure was 3.42; with `CC1CCCCN1c1c(-c2c(F)cc(F)cc2F)c(Cl)nc2nc(Cl)nn12` (stereo not drawn) [Example 85], 4.33; with `CCCN(CCOC)c1c(-c2c(F)cccc2Cl)c(Cl)nc2nc(Cl)nn12` [Example 135], 4.06.

Turning to `CCOC(=O)CN(CC)c1c(-c2ccc(F)cc2F)c(Cl)nc2nc(Cl)nn12` [Example 123], the log.P turned out to be 3.61. Compound `C=C(C)CN(CC)c1c(-c2ccc(F)cc2F)c(Cl)nc2nc(Cl)nn12` [Example 118] gave a log.P of 4.3. Still for that read-out and setting: to `Clc1nc2nc(Cl)c(-c3ccccc3Cl)c(N3CCSCC3)n2n1` [Example 38] belongs 3.76.

In the case of `CCN(CC)c1c(-c2ccc(F)cc2F)c(Cl)nc2nc(Cl)nn12` [Example 125], the log.P was determined as 3.74. The compound `Clc1nc2nc(Cl)c(-c3ccccc3Cl)c(NC3CC3)n2n1` [Example 37] registered a log.P of 3.18. As for `Fc1cc(F)c(-c2c(Cl)nc3nc(Cl)nn3c2N2CCCC2)c(F)c1` [Example 8], the log.P came to 3.46.

For the compound `Fc1cc(F)c(-c2c(Cl)nc3nc(Cl)nn3c2NN2CCOCC2)c(F)c1` [Example 16], the log.P is given as 2.74. On to `CC1CCCN(c2c(-c3ccccc3Cl)c(Cl)nc3nc(Cl)nn23)C1` (stereo not drawn) [Example 92], for which the log.P is 4.64. Still for that read-out and setting: to `Fc1ccc(-c2c(Cl)nc3nc(Cl)nn3c2NC2CCCC2)c(F)c1` [Example 103] belongs 3.79; to `CCNc1c(-c2c(F)cc(F)cc2F)c(Cl)nc2nc(Cl)nn12` [Example 7], 3.07; to `Fc1cc(F)c(-c2c(Cl)nc3nc(Cl)nn3c2N2CCOCC2)c(F)c1` [Example 5], 2.99. In turn, `FC(F)(F)C1CCN(c2c(-c3ccccc3Cl)c(Cl)nc3nc(Cl)nn23)CC1` [Example 81] had a log.P of 4.22. The same measure, in the same setting: to `CON(C)c1c(-c2c(F)cc(F)cc2F)c(Cl)nc2nc(Br)nn12` [Example 68] belongs 3.39. `CC1=CCCN(c2c(-c3c(F)cc(F)cc3F)c(Cl)nc3nc(Br)nn23)C1` [Example 72] yielded a log.P of 4.19. Still for that read-out and setting: to `Fc1cc(F)c(-c2c(Cl)nc3nc(Br)nn3c2N2CCCC2)c(F)c1` [Example 52] belongs 3.5; to `CCC(C)CNc1c(-c2c(F)cc(F)cc2F)c(Cl)nc2nc(Cl)nn12` (stereo not drawn) [Example 69], 4.04. The compound `COCCNc1c(-c2ccccc2Cl)c(Cl)nc2nc(Cl)nn12` [Example 35] displayed a log.P of 2.91. As for `COC(=O)N(C)Nc1c(-c2ccccc2Cl)c(Cl)nc2nc(Cl)nn12` [Example 41], the log.P came out at 2.55. Same read-out and setting: with `C=C(C)CN(CC)c1c(-c2c(F)cc(F)cc2F)c(Cl)nc2nc(Cl)nn12` [Example 78] the figure was 4.4. The same measure, in the same setting: to `Fc1cc(F)c(-c2c(Cl)nc3nc(Br)nn3c2NC2CC2)c(F)c1` [Example 56] belongs 3.14. Still for that read-out and setting: with `CCN(CC)c1c(-c2c(F)cc(F)cc2F)c(Cl)nc2nc(Br)nn12` [Example 53] the figure was 3.9; with `Fc1cccc(Cl)c1-c1c(Cl)nc2nc(Cl)nn2c1N1CCCC1` [Example 134], 3.54; with `CC(C)C(C)Nc1c(-c2c(F)cc(F)cc2F)c(Cl)nc2nc(Cl)nn12` (stereo not drawn) [Example 171], 4.01.

`C=C(C)CNc1c(-c2ccc(F)cc2F)c(Cl)nc2nc(Cl)nn12` [Example 108] came in with a log.P of 3.3. For `Fc1ccc(-c2c(Cl)nc3nc(Cl)nn3c2NC2CC2)c(F)c1` [Example 105], the log.P came to 3.01. `CCC1=CCN(c2c(-c3ccccc3Cl)c(Cl)nc3nc(Cl)nn23)CC1` [Example 93]: the log.P came to 4.87.

Turning to `CC(C)CN(N)c1c(-c2c(F)cc(F)cc2F)c(Cl)nc2nc(Br)nn12` [Example 65], the log.P is 3.67. The same measure, in the same setting: with `Fc1cc(F)c(-c2c(Cl)nc3nc(Br)nn3c2NN2CCOCC2)c(F)c1` [Example 57] the figure was 2.77. With `CC1=CCCN(c2c(-c3c(F)cc(F)cc3F)c(Cl)nc3nc(Cl)nn23)C1` [Example 87], the log.P amounted to 4.21.

The compound `CC(Nc1c(-c2c(F)cc(F)cc2F)c(Cl)nc2nc(Cl)nn12)C1CCCCC1` (stereo not drawn) [Example 23] registered a log.P of 4.87.

`Clc1nc2nc(Cl)c(-c3ccccc3Cl)c(N3CCOCC3)n2n1` [Example 27] showed a log.P of 3.03. Still for that read-out and setting: to `CC(C)Nc1c(-c2c(F)cc(F)cc2F)c(Cl)nc2nc(Br)nn12` [Example 43] belongs 3.4. With `CC(C)NNc1c(-c2c(F)cc(F)cc2F)c(Cl)nc2nc(N(C)C)nn12` [Example 4], the log.P amounted to 3.33.

Turning to `Fc1cc(F)c(-c2c(Cl)nc3nc(Br)nn3c2NCC2CC2)c(F)c1` [Example 62], the log.P is given as 3.5. On the same count and under the same terms, to `C[C@@H](Nc1c(-c2ccccc2Cl)c(Cl)nc2nc(Cl)nn12)C(F)(F)F` [Example 97] belongs 3.63. Compound `C=CCN(CC)c1c(-c2ccc(F)cc2F)c(Cl)nc2nc(Cl)nn12` [Example 119] returned a log.P of 3.95.

Take `Fc1cccc(Cl)c1-c1c(Cl)nc2nc(Cl)nn2c1N1CCSCC1` [Example 131]: the log.P turned out to be 3.73. Same read-out and setting: to `CCN(CC)c1c(-c2c(F)cc(F)cc2F)c(Cl)nc2nc(Cl)nn12` [Example 9] belongs 3.85; to `CC(Nc1c(-c2ccc(F)cc2F)c(Cl)nc2nc(Cl)nn12)C(F)(F)F` (stereo not drawn) [Example 96], 3.52. On the same count and under the same terms, to `CC(C)(C)Nc1c(-c2ccccc2Cl)c(Cl)nc2nc(Cl)nn12` [Example 22] belongs 3.99.

For the compound `CN(C)c1c(-c2ccccc2Cl)c(Cl)nc2nc(Cl)nn12` [Example 26], the log.P is listed as 3.18. `Clc1nc2nc(Cl)c(-c3ccccc3Cl)c(NC3CCCC3)n2n1` [Example 34] displayed a log.P of 4.03. Same read-out and setting: to `Clc1nc2nc(Cl)c(-c3ccccc3Cl)c(NCC3CC3)n2n1` [Example 19] belongs 3.55; to `CC(C)C(C)Nc1c(-c2ccccc2Cl)c(Cl)nc2nc(Br)nn12` (stereo not drawn) [Example 170], 4.18; to `CC(Nc1c(-c2c(F)cc(F)cc2F)c(Cl)nc2nc(N(C)C)nn12)C(F)(F)F` (stereo not drawn) [Example 3], 3.52. The same measure, in the same setting: to `COCCNc1c(-c2ccc(F)cc2F)c(Cl)nc2nc(Cl)nn12` [Example 104] belongs 2.82. As for `CC1CN(c2c(-c3ccccc3Cl)c(Cl)nc3nc(Cl)nn23)CC(C)O1` (stereo not drawn) [Example 28], the log.P is recorded as 3.81.
